Results from patent US20220193445A1, “PHOTOERADICATION OF MICROORGANISMS WITH PULSED PURPLE OR BLUE LIGHT” (SAN DIEGO STATE UNIVERSITY RESEARCH FOUNDATION, priority 2016, published 2022).
“And” between values parts separate entries of the source, which are not always exact repeats. Identical values can stand only once.

Legend:
[1] = tested on: GBS wild type strain COH1; assay: GBS survival with porphyrin supplementation, with or without pulsed 450 nm light (Study 1, no incubation); format: cell-based, Group B Streptococcus (GBS)
Protocol: GBS wild type strain COH1 was added to 3 mL of Todd Hewitt broth and grown aerobically overnight at 37° C. From the overnight cultures, 500 uL of GBS was added to fresh Todd Hewitt broth and grown logarithmically at 37° C. until reaching a concentration of 10^8 CFU/mL. The culture was then centrifuged at 1300 rpm for three minutes, the supernatant was removed and discarded, and 1 mL of fresh Todd Hewitt broth was added. Serial dilutions of NaCl were made to obtain a suspension of GBS diluted to a concentration of 1×10^4 CFU/mL. The GBS were streaked onto Todd Hewitt agar plates both with and without the addition of diluted porphyrins (different concentrations of PPIX or CP III).
(§1) The lighted substrate was set to operate in 33% DF pulsed mode and driven with a constant current source. The average irradiance was 3 mW/cm^2. The pulse duration was 10 microseconds with an off time of 20 microseconds, and a pulse repetition rate of 33 kHz. The plates subject to light treatment were irradiated three times at […] with a radiant exposure of 7.56 J/cm^2 during each irradiation session (i.e., each irradiation session was 42 minutes with an incubation period there between of 30 minutes).
(§2) After irradiation protocols were completed, the plates were placed upside down in the anaerobic chamber and incubated at 37° C. for 24 hours. The plates were photographed, colonies counted and statistics of percent survival recorded.

[2] = tested on: GBS wild type strain COH1; assay: GBS survival with porphyrin supplementation and 30 min incubation (optional wash), with or without pulsed 450 nm light (Study 2); format: cell-based, Group B Streptococcus (GBS)
Protocol: GBS wild type strain COH1 was added to 3 mL of Todd Hewitt broth and grown aerobically overnight at 37° C. From the overnight cultures, 500 uL of GBS was added to fresh Todd Hewitt broth and grown logarithmically at 37° C. until reaching a concentration of 10^8 CFU/mL. The culture was then centrifuged at 1300 rpm for three minutes, the supernatant was removed and discarded, and 1 mL of fresh Todd Hewitt broth was added.
The culture was then split into three Eppendorf tubes—a first tube for GBS and second and third tubes for GBS with diluted porphyrins used for incubation. Diluted porphyrins (PPIX or CP III) were added into the second and third tubes and incubated for 30 minutes at 37° C. The third tube was then washed three times with phosphate-buffered saline (PBS) and centrifuged at 1300 rpm for three minutes, and the supernatant was removed and discarded. Serial dilutions of NaCl were made to obtain a suspension of GBS diluted to a concentration of 1×10^4 CFU/mL. The GBS were streaked onto Todd Hewitt agar plates.
as §1, with “therebetween” for “there between”
as §2

[3] = 0.05 mg/mL porphyrin + pulsed 450 nm light, 7.56 J/cm^2, 3 mW/cm^2, 33% DF, three irradiations
[4] = 0.2 mg/mL (incubated) + pulsed 450 nm light 7.56 J/cm^2, three irradiations
[5] = 0.2 mg/mL (incubated), without any irradiation

Compound	percent GBS survival compared to the control ([1]; 0.02 mg/mL porphyrin + pulsed 450 nm light, 7.56 J/cm^2, 3 mW/cm^2, 33% DF, three irradiations) [%]	percent GBS survival compared to the control [1, 3]	percent GBS survival compared to the control ([2]; 0.02 mg/mL (incubated and washed) + pulsed 450 nm light 7.56 J/cm^2, three irradiations)	percent GBS survival compared to the control ([2]; 0.02 mg/mL (incubated and washed), no irradiation)	percent GBS survival compared to the control ([2]; 0.02 mg/mL (incubated) + pulsed 450 nm light 7.56 J/cm^2, three irradiations)	percent GBS survival compared to the control ([2]; 0.02 mg/mL (incubated), without any irradiation)	percent GBS survival compared to the control ([2]; 0.08 mg/mL (incubated and washed) + pulsed 450 nm light 7.56 J/cm^2, three irradiations)	percent GBS survival compared to the control ([2]; 0.08 mg/mL (incubated and washed), no irradiation)	percent GBS survival compared to the control ([2]; 0.08 mg/mL (incubated) + pulsed 450 nm light 7.56 J/cm^2, three irradiations)	percent GBS survival compared to the control ([2]; 0.08 mg/mL (incubated), without any irradiation)	percent GBS survival compared to the control ([2]; 0.2 mg/mL (incubated and washed) + pulsed 450 nm light 7.56 J/cm^2, three irradiations)	percent GBS survival compared to the control ([2]; 0.2 mg/mL (incubated and washed), no irradiation)	percent GBS survival compared to the control [2, 4]	percent GBS survival compared to the control [2, 5]	percent GBS survival compared to the control ([1]; 0.02 mg/mL porphyrin, without any irradiation)	percent GBS survival compared to the control ([1]; 0.05 mg/mL porphyrin, without any irradiation)	percent GBS survival compared to the control ([2]; 0.05 mg/mL (incubated and washed) + pulsed 450 nm light 7.56 J/cm^2, three irradiations) [%]	percent GBS survival compared to the control ([2]; 0.05 mg/mL (incubated and washed), no irradiation)	percent GBS survival compared to the control ([2]; 0.05 mg/mL (incubated) + pulsed 450 nm light 7.56 J/cm^2, three irradiations) [%]	percent GBS survival compared to the control ([2]; 0.05 mg/mL (incubated), without any irradiation)
C=CC1=C(C)c2cc3[nH]c(cc4nc(cc5[nH]c(cc1n2)c(C)c5CCC(=O)O)C(CCC(=O)O)=C4C)c(C)c3C=C [PPIX, protoporphyrin IX]	0	3% and 0%	approximately 18%	approximately 92%	approximately 68%	approximately 92%	approximately 40%	approximately 76%	approximately 52%	approximately 84%	approximately 10%	approximately 78%	approximately 50%	approximately 80%	–	–	–	–	–	–
coproporphyrin III [CP III]	–	0%	–	–	–	–	–	–	–	–	–	–	0%	approximately 82%	approximately 74%	approximately 84%	0	approximately 72%	0	approximately 90%
